Reference: paper PMC6150024, “In Vitro Evaluation of Cytotoxicity and Permeation Study on Lysine- and Arginine-Based Lipopeptides with Proven Antimicrobial Activity” (Molecules : A Journal of Synthetic Chemistry and Natural …, 2017)
≈ marks a conversion by molar mass, not a printed value. Like-named read-outs stand apart in the source and are kept apart here. Residues, ends and D or L forms follow the SMILES beside them. *: point of attachment. Palmitoyl = CCCCCCCCCCCCCCCC(=O)*

Legend:
[1] = test system: Candida albicans (ATCC 10231); assay type: cell-based; settings: ATCC 10231, 48 h
Description: (§1) The compounds were dissolved in a mixture of dimethyl sulphoxide (DMSO) and phosphate buffer (PBS). […] MIC was determined by the serial dilution method on polystyrene 96-well plates with Mueller–Hinton II broth (MHB II) for reference bacterial strains: Staphylococcus aureus (ATCC 25923) and Escherichia coli (ATCC 25922), while for Candida albicans (ATCC 10231), the Sabouraud dextrose broth was applied. The microorganisms were obtained from the Polish Collection of Microorganisms (Wroclaw, Poland). Bacteria were cultured at 37 °C under aerobic conditions overnight in Brain Heart Infusion broth, centrifuged at 1000 rpm for 8 min, washed thrice with PBS and resuspended in MHB II. Candida albicans was cultured in Sabouraud dextrose broth for 48 h at 27 °C under aerobic conditions, centrifuged at 1000 rpm for 8 min, washed thrice with PBS and resuspended in Sabouraud dextrose broth. Bacterial (5 × 10^5 CFU/mL) and fungal (5 × 10^4 CFU/mL) suspensions were exposed to lipopeptides applied at graded concentrations (range 1–512 mg/L) for 18 h at 37 °C under aerobic conditions (bacteria) and 48 h at 27 °C under aerobic conditions (fungi). MIC was taken as the lowest concentration at which no visible growth of bacteria/fungi was observed. MBC and MFC were determined using MH II agar and Sabouraud Dextrose agar, for bacteria and fungi respectively. The contents of wells with MICs and two subsequent higher concentrations were transferred to agar plates and cultivated for 18 h at 37 °C under aerobic conditions (bacteria) and 48 h at 27 °C under aerobic conditions (fungi). The MBC and MFC were taken as the lowest concentrations at which no colony forming units were found. All tests were performed in triplicate.

[2] = test system: Escherichia coli (ATCC 25922); assay type: cell-based; settings: for MBC E. coli / MIC E. coli: ATCC 25922, 18 h
Description: as §1

[3] = test system: Staphylococcus aureus (ATCC 25923); assay type: cell-based; settings: for MBC S. aureus / MIC S. aureus: ATCC 25923, 18 h
Description: as §1

HaCaT keratinocytes = assay type: cell-based, human
Description: HaCaT cells were obtained from American Type Culture Collection (ATCC). Cells were cultivated in Dulbecco’s modified Eagle Medium (Invitrogen) with 10% fetal bovine serum in humidified incubator at […] in 5% CO2 and cultured in 96-well plates and allowed to grow to 60–70% confluence prior to the start of the experiments.
The MTT assay is a colorimetric technique for assessing cell metabolic activity based on NAD(P)H-dependent cellular oxidoreductase enzymes activity that, under defined conditions, reflects the number of viable cells present. Viable cells reduce the tetrazolium dye MTT 3-(4,5-dimethylthiazol-2-yl)-2,5-diphenyltetrazolium bromide to its insoluble formazan, which has a purple colour. The colour intensity reflects the number of live cells and can be measured spectrophotometrically. Briefly, one day after culturing 500 cells per well, different concentrations of compounds were applied. After a 24-h incubation with the specified compounds, a medium containing 1 mg/mL MTT was added to the cells (HaCaT keratinocytes) up to a final concentration of 0.5 mg/mL and incubated at 37 °C for 4 h. The medium was then aspired, and the formazan product was solubilized with DMSO. The absorbance at 630 nm (background absorbance) was subtracted and absorbance measured at 570 nm for each well. There were 6 replicates for each tested concentration. All experiments were repeated at least twice. The resulting IC50 values were calculated with a GraFit 7 software (v. 7.0, Erithacus, Berkley, CA, USA).

[4] = assay type: physicochemical
Description: as §1

[5] = test system: Staphylococcus aureus (ATCC 25923); parameters: method as in 2 sources, ref 11 = [11]; PMID 28203232; doi:10.3389/fmicb.2017.00123; 11. Greber K.E. Dawgul M. Kamysz W. Sawicki W. Cationic net charge and counter ion type as antimicrobial activity determinant factors of short lipopeptides Front. Microbiol. 2017 8 1 10 10.3389/fmicb. ||| ref 12 = [12]; PMID 24748099; doi:10.1007/s00726-014-1744-9; 12. Greber K.E. Dawgul M. Kamysz W. Sawicki W. Łukasiak J. Biological and surface-active properties of double-chain cationic amino acid-based surfactants Amino Acids 2014 46 1893 1898 10.1007/s00726-0; settings: cited from earlier work; for MIC S. aureus: ATCC 25923, serial dilution; for MBC S. aureus: ATCC 25923
[6] = test system: Escherichia coli (ATCC 25922); parameters: method as in 2 sources, ref 11 = [11]; PMID 28203232; doi:10.3389/fmicb.2017.00123; 11. Greber K.E. Dawgul M. Kamysz W. Sawicki W. Cationic net charge and counter ion type as antimicrobial activity determinant factors of short lipopeptides Front. Microbiol. 2017 8 1 10 10.3389/fmicb. ||| ref 12 = [12]; PMID 24748099; doi:10.1007/s00726-014-1744-9; 12. Greber K.E. Dawgul M. Kamysz W. Sawicki W. Łukasiak J. Biological and surface-active properties of double-chain cationic amino acid-based surfactants Amino Acids 2014 46 1893 1898 10.1007/s00726-0; settings: cited from earlier work; for MIC E. coli: ATCC 25922, serial dilution; for MBC E. coli: ATCC 25922
[7] = test system: Candida albicans (ATCC 10231); parameters: method as in 2 sources, ref 11 = [11]; PMID 28203232; doi:10.3389/fmicb.2017.00123; 11. Greber K.E. Dawgul M. Kamysz W. Sawicki W. Cationic net charge and counter ion type as antimicrobial activity determinant factors of short lipopeptides Front. Microbiol. 2017 8 1 10 10.3389/fmicb. ||| ref 12 = [12]; PMID 24748099; doi:10.1007/s00726-014-1744-9; 12. Greber K.E. Dawgul M. Kamysz W. Sawicki W. Łukasiak J. Biological and surface-active properties of double-chain cationic amino acid-based surfactants Amino Acids 2014 46 1893 1898 10.1007/s00726-0; settings: cited from earlier work; for MIC C. albicans: ATCC 10231, serial dilution; for MFC C. albicans: ATCC 10231
human keratinocytes = settings: cited from earlier work
Description: (§2) The results of the MTT assay obtained in this study indicate high toxicity of lipopeptides containing one palmitic acid chain. This contradicts the previously advanced hypotheses about the selectivity of antimicrobial peptides. According to some authors, peptides designed based on naturally occurring compounds in human organisms are expected to be safe to human cells and their selectivity results from the presence of cholesterol and arrangement of lipids in the eukaryotic cell membrane. […] In the previou ...

human red blood cells = settings: cited from earlier work
Description: as §2

[8] = MTT assay, 24 h exposure, 6 replicates per concentration, experiments repeated at least twice
[9] = classification of antimicrobial peptides from patent

| Molecule | MFC C. albicans [1] | MIC C. albicans [1] | MBC E. coli [2] | MIC E. coli [2] | MBC S. aureus [3] | MIC S. aureus [3] | IC50 ± SD on HaCaT keratinocytes (HaCaT keratinocytes; 24 h) | Concentration at which solutions were obtained [4] | other results |
| --- | --- | --- | --- | --- | --- | --- | --- | --- | --- |
| CCCCCCCCCCCCCCCC(=O)N[C@@H](CCCCN)C(=O)NCCCC[C@H](N)C(N)=O [Lipopeptide C16-KεK-NH2] | 256 µg/mL (≈ 500 µM) | 128 µg/mL (≈ 250 µM) | 32 µg/mL (≈ 62.5 µM) | 16 µg/mL (≈ 31.3 µM) | 8 µg/mL (≈ 15.6 µM) | 8 µg/mL (≈ 15.6 µM) | 7.4 ± 0.9 mg/L (≈ 14.5 µM) |  |  |
| CCCCCCCCCCCCCCCC(=O)N[C@@H](CCCCN)C(=O)N[C@@H](CCCNC(=N)N)C(=O)N[C@@H](CCCCN)C(N)=O [Lipopeptide C16-KRK-NH2] (Palmitoyl-Lys-Arg-Lys-NH2) | 256 µg/mL (≈ 383 µM) | 128 µg/mL (≈ 192 µM) | 16 µg/mL (≈ 24 µM) | 8 µg/mL (≈ 12 µM) | 16 µg/mL (≈ 24 µM) | 4 µg/mL (≈ 5.99 µM) | 2.3 ± 0.4 mg/L (≈ 3.44 µM) | 512 µg/mL |  |
| CCCCCCCCCCCCCCCC(=O)N[C@@H](CCCCN)C(=O)N[C@@H](CCCCN)C(N)=O [Lipopeptide C16-KK-NH2] |  |  |  |  |  |  | 1.8 ± 0.2 mg/L (≈ 3.52 µM) | 512 µg/mL | MIC S. aureus ([5]; Table 1 ref 11): 4 µg/mL (≈ 7.82 µM); MBC S. aureus ([5]; Table 1 ref 11): 4 µg/mL (≈ 7.82 µM); MIC E. coli ([6]; Table 1 ref 11): 8 µg/mL (≈ 15.6 µM); MBC E. coli ([6]; Table 1 ref 11): 8 µg/mL (≈ 15.6 µM); MIC C. albicans ([7]; Table 1 ref 11): 128 µg/mL (≈ 250 µM); MFC C. albicans ([7]; Table 1 ref 11): 128 µg/mL (≈ 250 µM); Concentration with negative influence on proliferation and viability of human keratinocytes (human keratinocytes): ≥ 1 µg/mL |
| CCCCCCCCCCCCCCCC(=O)N[C@@H](CCCNC(=N)N)C(=O)N[C@@H](CCCNC(=N)N)C(N)=O [Lipopeptide C16-RR-NH2] (Palmitoyl-Arg-Arg-NH2) | 256 µg/mL (≈ 451 µM) | 128 µg/mL (≈ 225 µM) | 16 µg/mL (≈ 28.2 µM) | 16 µg/mL (≈ 28.2 µM) | 8 µg/mL (≈ 14.1 µM) | 8 µg/mL (≈ 14.1 µM) | 1.9 ± 0,3 mg/L |  |  |
| (C12)2-KKKK-NH2 |  |  |  |  |  |  |  |  | IC50 ± SD on HaCaT keratinocytes (HaCaT keratinocytes; [8]): 42.1 ± 9.1 mg/L; MIC S. aureus ([5]; Table 1 ref 12): 16 µg/mL; MBC S. aureus ([5]; Table 1 ref 12): 32 µg/mL; MIC E. coli ([6]; Table 1 ref 12): 64 µg/mL; MBC E. coli ([6]; Table 1 ref 12): 64 µg/mL; MIC C. albicans ([7]; Table 1 ref 12): 256 µg/mL; MFC C. albicans ([7]; Table 1 ref 12): 512 µg/mL |
| CCCCCCCCCCCCCCCC(=O)N[C@@H](CCCNC(=N)N)C(=O)N[C@@H](CCCNC(=N)N)C(=O)N[C@@H](CCCNC(=N)N)C(N)=O [Lipopeptide C16-RRR-NH2] (Palmitoyl-Arg-Arg-Arg-NH2) | 256 µg/mL (≈ 354 µM) | 128 µg/mL (≈ 177 µM) | 16 µg/mL (≈ 22.1 µM) | 16 µg/mL (≈ 22.1 µM) | 4 µg/mL (≈ 5.52 µM) | 2 µg/mL (≈ 2.76 µM) | 3.2 ± 1.4 mg/L (≈ 4.42 µM) |  |  |
| (C10)2-KKKK-NH2 |  |  |  |  |  |  |  |  | Activity class against E. coli by classification of Shai and Abrahami [2, 9]: active; Activity class against S. aureus by classification of Shai and Abrahami [3, 9]: highly active; IC50 ± SD on HaCaT keratinocytes (HaCaT keratinocytes; [8]): 49.4 ± 9.1 mg/L; MIC S. aureus ([5]; Table 1 ref 12): 8 µg/mL; MBC S. aureus ([5]; Table 1 ref 12): 16 µg/mL; MIC E. coli ([6]; Table 1 ref 12): 16 µg/mL; MBC E. coli ([6]; Table 1 ref 12): 16 µg/mL; MIC C. albicans ([7]; Table 1 ref 12): 128 µg/mL; MFC C. albicans ([7]; Table 1 ref 12): 256 µg/mL; Toxicity towards human red blood cells at microbiologically active concentrations (human red blood cells): non-toxic |
| CCCCCCCCCCCCCCCC(=O)N[C@@H](CCCCN)C(=O)N[C@@H](CCCCN)C(=O)N[C@@H](CCCCN)C(N)=O [Lipopeptide C16-KKK-NH2] |  |  |  |  |  |  | 3.2 ± 0.1 mg/L (≈ 5 µM) | 512 µg/mL | MIC S. aureus ([5]; Table 1 ref 11): 4 µg/mL (≈ 6.25 µM); MBC S. aureus ([5]; Table 1 ref 11): 8 µg/mL (≈ 12.5 µM); MIC E. coli ([6]; Table 1 ref 11): 8 µg/mL (≈ 12.5 µM); MBC E. coli ([6]; Table 1 ref 11): 16 µg/mL (≈ 25 µM); MIC C. albicans ([7]; Table 1 ref 11): 128 µg/mL (≈ 200 µM); MFC C. albicans ([7]; Table 1 ref 11): 128 µg/mL (≈ 200 µM) |
